{
  "source": "patent US4211772A",
  "about": "“Benzopyran glycoside acetals and ketals” (Laboratoires Sarget, priority 1977, dated 1980)",
  "key": {"[1]": {"assay": "Anti-inflammatory activity: carragenin edema test", "format": "in vivo", "conditions": "rat, in vivo, ip, borate buffer pH 7", "how_it_was_run": "(§1)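 Male Wistar EOPS rats receive 0.1 ml of 5% carragenin suspension in physiological serum into the hind-paw metatarsal muscle, with test substance given i.p. in neutralized solution at the same time. Paw edema is measured by plethysmometry at several times after carragenin and reported as % inhibition against pH-matched physiological serum controls.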"}, "carragenin edema": {"test_system": "carragenin edema", "assay": "Anti-inflammatory activity: carragenin edema test", "format": "in vivo", "conditions": "for % inhibition of carragenin edema: borate buffer pH 7, 24 h; for inhibition in vivo at 50 mg/kg / inhibition in vivo at 75 mg/kg / inhibition in vivo at 100 mg/kg / inhibition in vivo at 150 mg/kg: Rattus norvegicus, ip", "how_it_was_run": "as §1"}, "Aldose Reductase": {"target": "T1, Aldose Reductase (Bos taurus, UniProt P16116)", "T1 construct": "The enzyme is extracted from beef eye lenses; from tissue; host or cells: beef eye lenses", "assay": "Inhibition of aldose reductase in vitro (enzyme from beef eye lenses, glyceraldehyde substrate)", "format": "biochemical", "conditions": "in DMF solution, read-out: percentages of inhibition (aldose reductase)", "excerpt": "Inhibition of Aldose Reductase In Vitro\nThe reoxidation of NADPH coupled to the enzymatic reaction was followed spectrophotometrically at 340 nm."}, "Solubilities in water": {"assay": "Solubilities in water", "format": "physicochemical", "conditions": "water; read-out: Solubilities in water"}},
  "note": "Where two headings read alike, the source gives them in different places.",
  "data": [
    {"smiles": "C[C@@H]1O[C@@H](Oc2c(-c3ccc(O)c(O)c3)oc3cc(O)cc(O)c3c2=O)[C@@H]2OC3(CCCCC3)O[C@@H]2[C@H]1O", "note": "[No. 7, 3-O-(2,3-O,O-cyclohexylidene-α-L-rhamnosyl)-quercetin]", "values": [
      {"measurement": "mortality at 24 h", "setting": "[1]; 100 mg/kg i.p.", "result": 20, "unit": "%"},
      {"measurement": "mortality at 5 h", "setting": "[1]; 150 mg/kg i.p.", "result": 80, "unit": "%"},
      {"measurement": "% inhibition of carragenin edema", "setting": "carragenin edema; 50 mg/kg i.p.", "result": 10, "unit": "%"},
      {"measurement": "% inhibition of carragenin edema", "setting": "carragenin edema; 75 mg/kg i.p.", "result": 84, "unit": "%"},
      {"measurement": "% inhibition of carragenin edema", "setting": "carragenin edema; 100 mg/kg i.p.", "result": 67, "unit": "%"},
      {"measurement": "% inhibition of carragenin edema", "setting": "carragenin edema; 150 mg/kg i.p.", "result": 87, "unit": "%"},
      {"measurement": "inhibition in vivo at 50 mg/kg", "setting": "carragenin edema; 1 h, pH 7, read-out: % inhibition of carragenin edema, 50 mg/kg i.p., borate buffer pH 7, 1 h", "result": 14, "unit": "%"},
      {"measurement": "inhibition in vivo at 50 mg/kg", "setting": "carragenin edema; 1 h, pH 7, read-out: % inhibition of carragenin edema, 50 mg/kg i.p., borate buffer pH 7, 1 h 1/2", "result": 22, "unit": "%"},
      {"measurement": "inhibition in vivo at 75 mg/kg", "setting": "carragenin edema; 1 h, pH 7, read-out: % inhibition of carragenin edema, 75 mg/kg i.p., borate buffer pH 7, 1 h", "result": 73, "unit": "%"},
      {"measurement": "inhibition in vivo at 75 mg/kg", "setting": "carragenin edema; 1 h, pH 7, read-out: % inhibition of carragenin edema, 75 mg/kg i.p., borate buffer pH 7, 1 h 1/2", "result": 91, "unit": "%"},
      {"measurement": "inhibition in vivo at 100 mg/kg", "setting": "carragenin edema; 1 h, pH 7, read-out: % inhibition of carragenin edema, 100 mg/kg i.p., borate buffer pH 7, 1 h", "result": 51, "unit": "%"},
      {"measurement": "inhibition in vivo at 100 mg/kg", "setting": "carragenin edema; 1 h, pH 7, read-out: % inhibition of carragenin edema, 100 mg/kg i.p., borate buffer pH 7, 1 h 1/2", "result": 52, "unit": "%"},
      {"measurement": "inhibition in vivo at 150 mg/kg", "setting": "carragenin edema; 1 h, pH 7, read-out: % inhibition of carragenin edema, 150 mg/kg i.p., borate buffer pH 7, 1 h", "result": 89, "unit": "%"},
      {"measurement": "inhibition in vivo at 150 mg/kg", "setting": "carragenin edema; 1 h, pH 7, read-out: % inhibition of carragenin edema, 150 mg/kg i.p., borate buffer pH 7, 1 h 1/2", "result": 97, "unit": "%"},
      {"measurement": "inhibition in vivo at 50 mg/kg", "setting": "carragenin edema; 2 h, pH 7, read-out: % inhibition of carragenin edema, 50 mg/kg i.p., borate buffer pH 7, 2 h", "result": 16, "unit": "%"},
      {"measurement": "inhibition in vivo at 75 mg/kg", "setting": "carragenin edema; 2 h, pH 7, read-out: % inhibition of carragenin edema, 75 mg/kg i.p., borate buffer pH 7, 2 h", "result": 89, "unit": "%"},
      {"measurement": "inhibition in vivo at 100 mg/kg", "setting": "carragenin edema; 2 h, pH 7, read-out: % inhibition of carragenin edema, 100 mg/kg i.p., borate buffer pH 7, 2 h", "result": 48, "unit": "%"},
      {"measurement": "inhibition in vivo at 150 mg/kg", "setting": "carragenin edema; 2 h, pH 7, read-out: % inhibition of carragenin edema, 150 mg/kg i.p., borate buffer pH 7, 2 h", "result": 97, "unit": "%"},
      {"measurement": "inhibition in vivo at 50 mg/kg", "setting": "carragenin edema; 3 h, pH 7, read-out: % inhibition of carragenin edema, 50 mg/kg i.p., borate buffer pH 7, 3 h", "result": 23, "unit": "%"},
      {"measurement": "inhibition in vivo at 75 mg/kg", "setting": "carragenin edema; 3 h, pH 7, read-out: % inhibition of carragenin edema, 75 mg/kg i.p., borate buffer pH 7, 3 h", "result": 86, "unit": "%"},
      {"measurement": "inhibition in vivo at 100 mg/kg", "setting": "carragenin edema; 3 h, pH 7, read-out: % inhibition of carragenin edema, 100 mg/kg i.p., borate buffer pH 7, 3 h", "result": 45, "unit": "%"},
      {"measurement": "inhibition in vivo at 150 mg/kg", "setting": "carragenin edema; 3 h, pH 7, read-out: % inhibition of carragenin edema, 150 mg/kg i.p., borate buffer pH 7, 3 h", "result": 94, "unit": "%"},
      {"measurement": "inhibition in vivo at 50 mg/kg", "setting": "carragenin edema; 4 h, pH 7, read-out: % inhibition of carragenin edema, 50 mg/kg i.p., borate buffer pH 7, 4 h", "result": 21, "unit": "%"},
      {"measurement": "inhibition in vivo at 75 mg/kg", "setting": "carragenin edema; 4 h, pH 7, read-out: % inhibition of carragenin edema, 75 mg/kg i.p., borate buffer pH 7, 4 h", "result": 81, "unit": "%"},
      {"measurement": "inhibition in vivo at 100 mg/kg", "setting": "carragenin edema; 4 h, pH 7, read-out: % inhibition of carragenin edema, 100 mg/kg i.p., borate buffer pH 7, 4 h", "result": 46, "unit": "%"},
      {"measurement": "inhibition in vivo at 150 mg/kg", "setting": "carragenin edema; 4 h, pH 7, read-out: % inhibition of carragenin edema, 150 mg/kg i.p., borate buffer pH 7, 4 h", "result": 89, "unit": "%"},
      {"measurement": "inhibition in vivo at 50 mg/kg", "setting": "carragenin edema; 5 h, pH 7, read-out: % inhibition of carragenin edema, 50 mg/kg i.p., borate buffer pH 7, 5 h", "result": 7, "unit": "%"},
      {"measurement": "inhibition in vivo at 75 mg/kg", "setting": "carragenin edema; 5 h, pH 7, read-out: % inhibition of carragenin edema, 75 mg/kg i.p., borate buffer pH 7, 5 h", "result": 83, "unit": "%"},
      {"measurement": "inhibition in vivo at 100 mg/kg", "setting": "carragenin edema; 5 h, pH 7, read-out: % inhibition of carragenin edema, 100 mg/kg i.p., borate buffer pH 7, 5 h", "result": 45, "unit": "%"},
      {"measurement": "inhibition in vivo at 150 mg/kg", "setting": "carragenin edema; 5 h, pH 7, read-out: % inhibition of carragenin edema, 150 mg/kg i.p., borate buffer pH 7, 5 h", "result": 91, "unit": "%"},
      {"measurement": "inhibition in vivo at 50 mg/kg", "setting": "carragenin edema; 6 h, pH 7, read-out: % inhibition of carragenin edema, 50 mg/kg i.p., borate buffer pH 7, 6 h", "result": 6, "unit": "%"},
      {"measurement": "inhibition in vivo at 75 mg/kg", "setting": "carragenin edema; 6 h, pH 7, read-out: % inhibition of carragenin edema, 75 mg/kg i.p., borate buffer pH 7, 6 h", "result": 81, "unit": "%"},
      {"measurement": "inhibition in vivo at 100 mg/kg", "setting": "carragenin edema; 6 h, pH 7, read-out: % inhibition of carragenin edema, 100 mg/kg i.p., borate buffer pH 7, 6 h", "result": 43, "unit": "%"},
      {"measurement": "inhibition in vivo at 150 mg/kg", "setting": "carragenin edema; 6 h, pH 7, read-out: % inhibition of carragenin edema, 150 mg/kg i.p., borate buffer pH 7, 6 h", "result": 86, "unit": "%"},
      {"measurement": "inhibition in vivo at 50 mg/kg", "setting": "carragenin edema; read-out: % inhibition of carragenin edema, 50 mg/kg i.p., borate buffer pH 7, 1/2 h", "result": 0, "unit": "%"},
      {"measurement": "inhibition in vivo at 75 mg/kg", "setting": "carragenin edema; read-out: % inhibition of carragenin edema, 75 mg/kg i.p., borate buffer pH 7, 1/2 h", "result": 48, "unit": "%"},
      {"measurement": "inhibition in vivo at 100 mg/kg", "setting": "carragenin edema; read-out: % inhibition of carragenin edema, 100 mg/kg i.p., borate buffer pH 7, 1/2 h", "result": 21, "unit": "%"},
      {"measurement": "inhibition in vivo at 150 mg/kg", "setting": "carragenin edema; read-out: % inhibition of carragenin edema, 150 mg/kg i.p., borate buffer pH 7, 1/2 h", "result": 70, "unit": "%"},
      {"measurement": "inhibition at 100 µM", "setting": "Aldose Reductase; 10^-4 mole/l", "result": 91, "unit": "%"},
      {"measurement": "inhibition at 10 µM", "setting": "Aldose Reductase; 10^-5 mole/l", "result": 95, "unit": "%"},
      {"measurement": "inhibition at 1 µM", "setting": "Aldose Reductase; 10^-6 mole/l", "result": 84, "unit": "%"},
      {"measurement": "inhibition at 0.1 µM", "setting": "Aldose Reductase; 10^-7 mole/l", "result": 87, "unit": "%"},
      {"measurement": "solubility", "setting": "Solubilities in water", "result": "< 100", "unit": "µg/mL"}
    ]}
  ]
}
